Test [1] addresses CDK4/CyclinD1 (Homo sapiens, UniProt P11802). The test can be described thus: CDK4/CyclinD1 Flashplate assay, 96-well format, biotinylated-Rb peptide substrate. The test is classed as biochemical. The essentials: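 Biotinylated Rb peptide bound to streptavidin Flashplate; CDK4/CyclinD1 (70 ng/well) preincubated 30 min on ice with compound at 10, 3, 1, 0.3 and 0.1 μM final. Reaction with 1 μM cold ATP plus 33P-ATP for 45 min at RT; incorporated 33P counted, duplicates.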

In test [2] the target is CDK2/CyclinE (Homo sapiens, UniProt P24941). The test can be described thus: CDK2/CyclinE Flashplate assay, 96-well format, biotinylated-Rb peptide substrate. The test is classed as biochemical. The essentials:
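Biotinylated Rb peptide was captured on streptavidin Flashplates, and CDK2/CyclinE (200 ng/well) was preincubated 30 min on ice with inhibitor at 10, 3, 1, 0.3 or 0.1 μM final. Reactions ran 45 min at RT with 1 μM ATP plus 1 μCi ^33P-ATP. After washing, incorporated ^33P was counted, in duplicate.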

Sequence of CDK4/CyclinD1 (P11802 whole entry, species assumed): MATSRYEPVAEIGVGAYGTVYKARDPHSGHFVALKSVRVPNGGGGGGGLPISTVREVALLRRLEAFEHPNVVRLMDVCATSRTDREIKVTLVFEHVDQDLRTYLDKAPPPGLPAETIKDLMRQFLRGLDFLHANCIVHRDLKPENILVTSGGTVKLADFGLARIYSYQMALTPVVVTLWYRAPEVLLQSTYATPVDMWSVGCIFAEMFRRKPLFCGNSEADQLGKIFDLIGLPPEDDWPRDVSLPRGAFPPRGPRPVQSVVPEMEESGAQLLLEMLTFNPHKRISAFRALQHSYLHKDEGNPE
Sequence of CDK4/CyclinD1 (P24385 whole entry partner, species assumed): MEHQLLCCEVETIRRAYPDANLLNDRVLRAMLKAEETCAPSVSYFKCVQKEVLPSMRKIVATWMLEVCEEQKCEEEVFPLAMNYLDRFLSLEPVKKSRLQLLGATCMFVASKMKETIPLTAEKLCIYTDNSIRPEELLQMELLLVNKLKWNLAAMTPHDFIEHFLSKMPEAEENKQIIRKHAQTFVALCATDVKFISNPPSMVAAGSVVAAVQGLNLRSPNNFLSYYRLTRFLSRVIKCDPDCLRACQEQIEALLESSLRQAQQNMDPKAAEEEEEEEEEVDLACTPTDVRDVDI

Broadly, the IC50 is the concentration that gives 50% inhibition. In the case of `COC(=O)CCCNC(=O)Nc1nc2cc(OS(=O)(=O)c3ccc(NC4CCCC4)cc3)ccc2[nH]1` [Example 58-m, 4-{3-[5-(4-Cyclopentylamino-benzenesulfonyloxy)-1H-benzoimidazol-2-yl]-ureido}-butyric acid methyl ester], the IC50 amounted to 240 nM in test [1] and 30 nM in test [2].
In the same order, the values of `COC(=O)CNC(=O)Nc1nc2cc(OS(=O)(=O)c3ccc(NC4CCCC4)cc3)ccc2[nH]1` [Example 58-o, 4-{3-[5-(4-Cyclopentylamino-benzenesulfonyloxy)-1H-benzoimidazol-2-yl]-ureido}-acetic acid methyl ester] are 29 nM and 20 nM.
The inhibition is the drop in the measured response relative to a control, in per cent. The molecule `COC(=O)[C@@H]1CCCN1C(=O)Nc1nc2cc(OS(=O)(=O)c3ccc(NC4CCCC4)cc3)ccc2[nH]1` [Example 58-r, 1-[5-(4-Cyclopentylamino-benzenesulfonyloxy)-1H-benzoimidazol-2S-yl-carbamoyl]-pyrrolidine-2-carboxylic acid methyl ester] returned an inhibition at 10 µM in test [1] of 80%. The same molecule came in with an IC50 in test [2] of 20 nM.
As for `NC(=O)CNC(=O)Nc1nc2cc(OS(=O)(=O)c3ccc(NC4CCCC4)cc3)ccc2[nH]1` [Example 58-s, 4-Cyclopentylamino-benzenesulfonic acid 2-(3-carbamoylmethyl-ureido)-1H-benzoimidazol-5-yl ester], the IC50 was 12 nM in test [1] and 20 nM in test [2].
`O=C(NCC1CCNCC1)Nc1nc2cc(OS(=O)(=O)c3ccc(NC4CCCC4)cc3)ccc2[nH]1` [Example 58-u, 4-Cyclopentylamino-benzenesulfonic acid 2-(3-piperidin-4-ylmethyl-ureido)-1H-benzoimidazol-5-yl ester]: the IC50 in test [1] stood at 290 nM; in test [2] it was 10 nM.
In the same order, the values of `O=C(NCCN1CCOCC1)Nc1nc2cc(OS(=O)(=O)c3ccc(NC4CCCC4)cc3)ccc2[nH]1` [Example 58-v, 4-Cyclopentylamino-benzenesulfonic acid 2-[3-(2-morpholin-4-yl-ethyl)-ureido]-1H-benzoimidazol-5-yl ester] are 110 nM and 100 nM.
Take `CC(C)(N)CNC(=O)Nc1nc2cc(OS(=O)(=O)c3ccc(NC4CCCC4)cc3)ccc2[nH]1` [Example 58-w, 4-Cyclopentylamino-benzenesulfonic acid 2-[3-(2-amino-2-methyl-propyl)-ureido]-1H-benzoimidazol-5-yl ester]: the IC50 in test [1] worked out at 190 nM; in test [2], 250 nM.
In the same order, the values of `O=C(Nc1nc2cc(OS(=O)(=O)c3ccc(NC4CCCC4)cc3)ccc2[nH]1)N[C@H]1CC[C@H](O)CC1` [Example 58-x, 4-Cyclopentylamino-benzenesulfonic acid 2-[3-(4trans-hydroxy-cyclohexyl)-ureido]-1H-benzoimidazol-5-yl ester] are 310 nM and 40 nM.
On the same counts, the results for `O=C(NCCCO)Nc1nc2cc(OS(=O)(=O)c3ccc(NC4CCCC4)cc3)ccc2[nH]1` [Example 58-y, 4-Cyclopentylamino-benzenesulfonic acid 2-[3-(3-hydroxy-propyl)-ureido]-1H-benzoimidazol-5-yl ester] are 270 nM and 10 nM.
With `NC(=O)CNC(=O)Nc1nc2cc(OS(=O)(=O)c3ccc(NCC4CCCO4)cc3)ccc2[nH]1` (stereo not shown) [Example 59-a, 4-[(Tetrahydro-furan-2-ylmethyl)-amino]-benzenesulfonic acid 2-(3-carbamoylmethyl-ureido)-1H-benzoimidazol-5-yl ester], the IC50 is 100 nM in test [1] and 8 nM in test [2].
Turning to `O=C(NCCO)Nc1nc2cc(OS(=O)(=O)c3ccc(NCC4CCCO4)cc3)ccc2[nH]1` (stereo not shown) [Example 59-b, 4-[(Tetrahydro-furan-2-ylmethyl)-amino]-benzenesulfonic acid 2-[3-(2-hydroxy-ethyl)-ureido]-1H-benzoimidazol-5-yl ester], the values for the IC50 in test [1] and in test [2] were 300 nM and 7 nM, respectively.
With `O=C(NCCCO)Nc1nc2cc(OS(=O)(=O)c3ccc(NCC4CCCO4)cc3)ccc2[nH]1` (stereo not shown) [Example 59-c, 4-[(Tetrahydro-furan-2-ylmethyl)-amino]-benzenesulfonic acid 2-[3-(3-hydroxy-propyl)-ureido]-1H-benzoimidazol-5-yl ester], the IC50 in test [1] turned out to be 1000 nM; in test [2] it was 7 nM.
`O=C(NCCCCO)Nc1nc2cc(OS(=O)(=O)c3ccc(NCC4CCCO4)cc3)ccc2[nH]1` (stereo not shown) [Example 59-d, 4-[(Tetrahydro-furan-2-ylmethyl)-amino]-benzenesulfonic acid 2-[3-(4-hydroxy-butyl)-ureido]-1H-benzoimidazol-5-yl ester]: the IC50 turned out to be 500 nM in test [1] and 15 nM in test [2].
As to `COCC(C)NC(=O)Nc1nc2cc(OS(=O)(=O)c3ccc(NCC4CCCO4)cc3)ccc2[nH]1` (stereo not shown) [Example 59-e, 4-[(Tetrahydro-furan-2-ylmethyl)-amino]-benzenesulfonic acid 2-[3-(2-methoxy-1-methyl-ethyl)-ureido]-1H-benzoimidazol-5-yl ester], the figures for the IC50 in test [1] and in test [2] were 1600 nM and 100 nM, respectively.
Take `CCN1CCCC1CNC(=O)Nc1nc2cc(OS(=O)(=O)c3ccc(NCC4CCCO4)cc3)ccc2[nH]1` (stereo not shown) [Example 59-f, 4-[(Tetrahydro-furan-2-ylmethyl)-amino]-benzenesulfonic acid 2-[3-(1-ethyl-pyrrolidin-2-ylmethyl)-ureido]-1H-benzoimidazol-5-yl ester]: the values for the IC50 in test [1] and in test [2] were 1800 nM and 60 nM, respectively.
Turning to `O=C(NCCN1CCCC1)Nc1nc2cc(OS(=O)(=O)c3ccc(NCC4CCCO4)cc3)ccc2[nH]1` (stereo not shown) [Example 59-g, 4-[(Tetrahydro-furan-2-ylmethyl)-amino]-benzenesulfonic acid 2-[3-(2-pyrrolidin-1-yl-ethyl)-ureido]-1H-benzoimidazol-5-yl ester], the 50% inhibitory concentration (IC50) came to 1800 nM in test [1] and 200 nM in test [2].
In the same order, the values of `O=C(NCCCN1CCCC1)Nc1nc2cc(OS(=O)(=O)c3ccc(NCC4CCCO4)cc3)ccc2[nH]1` (stereo not shown) [Example 59-h, 4-[(Tetrahydro-furan-2-ylmethyl)-amino]-benzenesulfonic acid 2-[3-(3-pyrrolidin-1-yl-propyl)-ureido]-1H-benzoimidazol-5-yl ester] are 1100 nM and 200 nM.
On the same counts, the results for `O=C(NCCN1CCOCC1)Nc1nc2cc(OS(=O)(=O)c3ccc(NCC4CCCO4)cc3)ccc2[nH]1` (stereo not shown) [Example 59-i, 4-[(Tetrahydro-furan-2-ylmethyl)-amino]-benzenesulfonic acid 2-[3-(2-morpholin-4-yl-ethyl)-ureido]-1H-benzoimidazol-5-yl ester] are 1200 nM and 40 nM.
Turning to `CCNC(=O)Nc1nc2cc(OS(=O)(=O)c3ccc(NCC4CCCO4)cc3)ccc2[nH]1` (stereo not shown) [Example 59-j, 4-[(Tetrahydro-furan-2-ylmethyl)-amino]-benzenesulfonic acid 2-(3-ethyl-ureido)-1H-benzoimidazol-5-yl ester], the IC50 is 900 nM in test [1] and 7 nM in test [2].
On the same counts, the results for `O=C(NCc1ccccn1)Nc1nc2cc(OS(=O)(=O)c3ccc(NCC4CCCO4)cc3)ccc2[nH]1` (stereo not shown) [Example 59-k, 4-[(Tetrahydro-furan-2-ylmethyl)-amino]-benzenesulfonic acid 2-(3-pyridin-2-ylmethyl-ureido)-1H-benzoimidazol-5-yl ester] are 300 nM and 20 nM.
In the same order, the values of `O=C(NCc1cccnc1)Nc1nc2cc(OS(=O)(=O)c3ccc(NCC4CCCO4)cc3)ccc2[nH]1` (stereo not shown) [Example 59-l, 4-[(Tetrahydro-furan-2-ylmethyl)-amino]-benzenesulfonic acid 2-(3-pyridin-3-ylmethyl-ureido)-1H-benzoimidazol-5-yl ester] are 300 nM and 4 nM.
On the same counts, the results for `CN1CCN(CCCNC(=O)Nc2nc3cc(OS(=O)(=O)c4ccc(NCC5CCCO5)cc4)ccc3[nH]2)CC1` (stereo not shown) [Example 59-m, 4-[(Tetrahydro-furan-2-ylmethyl)-amino]-benzenesulfonic acid 2-{3-[3-(4-methyl-piperazin-1-yl)-propyl]-ureido}-1H-benzoimidazol-5-yl ester] are 1200 nM and 30 nM.
`O=C(NCCS(=O)(=O)O)Nc1nc2cc(OS(=O)(=O)c3ccc(NCC4CCCO4)cc3)ccc2[nH]1` (stereo not shown) [Example 59-n, 4-[(Tetrahydro-furan-2-ylmethyl)-amino]-benzenesulfonic acid 2-[3-(2-sulfo-ethyl)-ureido]-1H-benzoimidazol-5-yl ester]: the IC50 in test [1] was 130 nM; in test [2] it was 36 nM.
On the same counts, the results for `O=C(Nc1nc2cc(OS(=O)(=O)c3ccc(NCC4CCCO4)cc3)ccc2[nH]1)NC1CCC1` (stereo not shown) [Example 59-o, 4-[(Tetrahydro-furan-2-ylmethyl)-amino]-benzenesulfonic acid 2-(3-cyclobutyl-ureido)-1H-benzoimidazol-5-yl ester] are 800 nM and 40 nM.
On to `O=C(NCCCN1CCCC1=O)Nc1nc2cc(OS(=O)(=O)c3ccc(NCC4CCCO4)cc3)ccc2[nH]1` (stereo not shown) [Example 59-p, 4-[(Tetrahydro-furan-2-ylmethyl)-amino]-benzenesulfonic acid 2-{3-[3-(2-oxo-pyrrolidin-1-yl)-propyl]-ureido}-1H-benzoimidazol-5-yl ester], for which the IC50 in test [1] came to 180 nM; in test [2], 17 nM.
In the same order, the values of `O=C(NCCNCCO)Nc1nc2cc(OS(=O)(=O)c3ccc(NCC4CCCO4)cc3)ccc2[nH]1` (stereo not shown) [Example 59-q, 4-[(Tetrahydro-furan-2-ylmethyl)-amino]-benzenesulfonic acid 2-{3-[2-(2-hydroxy-ethylamino)-ethyl]-ureido}-1H-benzoimidazol-5-yl ester] are 750 nM and 110 nM.

The values above are taken from patent publication US20050014811A1, “Substituted benzimidazole compounds and their use for the treatment of cancer” (Aventis Pharma S.A., priority 2001, published 2005).
